Assay in all cases: FRET-based coupled-enzyme protein kinase inhibition assay
What all share (type): biochemical
What all share (conditions): compound at 10 µM, 1% DMSO

The target of one experiment is MAP2K1 (MEK1) (Homo sapiens, UniProt Q02750). Summed up:
(§1)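 Inhibition was quantified ratiometrically, as coumarin over fluorescein emission following 400 nm excitation, on a doubly labeled peptide whose cleavage by development reagent requires it to remain unphosphorylated. Kinase reactions ran 60 min at room temperature with ATP at apparent Km.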

For a further experiment, the target named is FRAP1 (mTOR) (Homo sapiens, UniProt P42345). The gist of the method:
as §1

The next experiment addresses MAPK3 (ERK1) (Homo sapiens, UniProt P27361). Summed up: as §1
A further experiment concerns the target MARK2 (Homo sapiens, UniProt Q7KZI7). Summed up:
as §1

The target in the next experiment is T1, NEK1 (Homo sapiens, UniProt Q96PY6).
T1 sequence (Q96PY6 1-1258): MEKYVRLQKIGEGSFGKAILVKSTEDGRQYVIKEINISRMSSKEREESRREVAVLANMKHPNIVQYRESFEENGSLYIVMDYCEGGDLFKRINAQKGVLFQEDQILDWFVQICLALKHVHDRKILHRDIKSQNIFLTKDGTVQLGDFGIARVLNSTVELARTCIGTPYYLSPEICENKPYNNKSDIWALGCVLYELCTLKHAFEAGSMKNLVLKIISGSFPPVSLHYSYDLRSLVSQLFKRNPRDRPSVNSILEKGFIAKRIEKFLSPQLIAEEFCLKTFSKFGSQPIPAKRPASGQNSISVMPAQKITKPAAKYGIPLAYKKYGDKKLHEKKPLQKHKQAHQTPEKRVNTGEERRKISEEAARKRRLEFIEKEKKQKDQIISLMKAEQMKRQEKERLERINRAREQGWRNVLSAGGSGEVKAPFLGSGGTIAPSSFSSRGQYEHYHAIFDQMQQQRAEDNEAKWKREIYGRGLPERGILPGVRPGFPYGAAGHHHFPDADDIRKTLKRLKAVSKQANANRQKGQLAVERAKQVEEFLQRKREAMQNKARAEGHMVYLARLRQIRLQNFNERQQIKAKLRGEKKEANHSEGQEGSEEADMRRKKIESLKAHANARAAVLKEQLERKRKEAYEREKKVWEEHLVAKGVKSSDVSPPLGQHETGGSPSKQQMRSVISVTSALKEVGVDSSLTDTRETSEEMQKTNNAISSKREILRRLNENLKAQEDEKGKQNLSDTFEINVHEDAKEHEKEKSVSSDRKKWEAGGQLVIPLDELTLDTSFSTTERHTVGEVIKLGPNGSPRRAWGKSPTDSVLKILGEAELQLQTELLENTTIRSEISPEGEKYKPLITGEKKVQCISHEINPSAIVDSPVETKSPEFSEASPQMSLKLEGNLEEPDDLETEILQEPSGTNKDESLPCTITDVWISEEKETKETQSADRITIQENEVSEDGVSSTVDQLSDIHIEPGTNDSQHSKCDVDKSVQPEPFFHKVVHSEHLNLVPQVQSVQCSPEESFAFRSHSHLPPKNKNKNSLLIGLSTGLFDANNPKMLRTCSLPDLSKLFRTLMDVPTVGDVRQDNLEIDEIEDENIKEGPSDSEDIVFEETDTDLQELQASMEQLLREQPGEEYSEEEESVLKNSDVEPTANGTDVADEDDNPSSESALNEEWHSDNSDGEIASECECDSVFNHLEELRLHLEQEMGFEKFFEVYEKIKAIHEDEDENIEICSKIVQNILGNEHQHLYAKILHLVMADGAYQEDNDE
The gist of the method:
as §1

For the next experiment, the target named is CSNK2A1 (CK2 alpha 1) (Homo sapiens, UniProt P68400). Summed up: as §1
CSNK2A1 (CK2 alpha 1), sequence (P68400 whole entry, species assumed): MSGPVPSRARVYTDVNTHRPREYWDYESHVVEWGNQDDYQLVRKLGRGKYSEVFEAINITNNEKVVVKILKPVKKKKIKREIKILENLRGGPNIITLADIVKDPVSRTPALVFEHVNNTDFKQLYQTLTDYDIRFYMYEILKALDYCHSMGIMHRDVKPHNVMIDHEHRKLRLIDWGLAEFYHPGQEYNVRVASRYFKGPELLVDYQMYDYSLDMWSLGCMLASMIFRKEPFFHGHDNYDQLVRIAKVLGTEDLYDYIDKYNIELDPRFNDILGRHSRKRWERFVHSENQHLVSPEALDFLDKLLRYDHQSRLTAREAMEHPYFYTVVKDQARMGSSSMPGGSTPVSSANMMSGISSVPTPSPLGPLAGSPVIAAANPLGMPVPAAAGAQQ
The next experiment deals with BTK (Homo sapiens, UniProt Q06187). Summed up:
as §1

Another experiment has as its target KIT (Homo sapiens, UniProt P10721). The gist of the method:
as §1

For the next experiment, the target named is MAPK14 (p38 alpha) (Homo sapiens, UniProt Q16539). Summed up: as §1
MAPK14 (p38 alpha), sequence (Q16539 whole entry, species assumed): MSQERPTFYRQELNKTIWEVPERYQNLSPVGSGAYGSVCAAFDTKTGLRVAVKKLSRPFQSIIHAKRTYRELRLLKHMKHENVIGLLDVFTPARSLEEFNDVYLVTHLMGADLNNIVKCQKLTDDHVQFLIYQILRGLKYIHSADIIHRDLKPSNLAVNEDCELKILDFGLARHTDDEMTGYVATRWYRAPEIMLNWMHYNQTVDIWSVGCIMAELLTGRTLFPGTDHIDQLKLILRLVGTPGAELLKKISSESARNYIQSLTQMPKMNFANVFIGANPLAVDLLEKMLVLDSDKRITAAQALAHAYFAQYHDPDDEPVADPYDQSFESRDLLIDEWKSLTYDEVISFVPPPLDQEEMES
Another experiment has as its target MAPK1 (ERK2) (Homo sapiens, UniProt P28482). Summed up:
as §1

MAP2K1 (MEK1), sequence (Q02750 whole entry, species assumed): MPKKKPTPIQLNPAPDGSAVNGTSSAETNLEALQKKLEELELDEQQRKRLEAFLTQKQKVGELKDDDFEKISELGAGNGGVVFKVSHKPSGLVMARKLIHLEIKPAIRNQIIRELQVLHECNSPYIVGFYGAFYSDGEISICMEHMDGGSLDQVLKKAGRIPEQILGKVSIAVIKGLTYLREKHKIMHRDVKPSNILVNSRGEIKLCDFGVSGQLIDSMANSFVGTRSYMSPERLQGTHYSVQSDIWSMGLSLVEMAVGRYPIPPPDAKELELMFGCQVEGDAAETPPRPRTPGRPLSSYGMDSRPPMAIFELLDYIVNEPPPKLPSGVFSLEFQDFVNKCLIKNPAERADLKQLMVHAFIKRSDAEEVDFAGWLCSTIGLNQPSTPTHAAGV
KIT, sequence (P10721 26-976, species assumed): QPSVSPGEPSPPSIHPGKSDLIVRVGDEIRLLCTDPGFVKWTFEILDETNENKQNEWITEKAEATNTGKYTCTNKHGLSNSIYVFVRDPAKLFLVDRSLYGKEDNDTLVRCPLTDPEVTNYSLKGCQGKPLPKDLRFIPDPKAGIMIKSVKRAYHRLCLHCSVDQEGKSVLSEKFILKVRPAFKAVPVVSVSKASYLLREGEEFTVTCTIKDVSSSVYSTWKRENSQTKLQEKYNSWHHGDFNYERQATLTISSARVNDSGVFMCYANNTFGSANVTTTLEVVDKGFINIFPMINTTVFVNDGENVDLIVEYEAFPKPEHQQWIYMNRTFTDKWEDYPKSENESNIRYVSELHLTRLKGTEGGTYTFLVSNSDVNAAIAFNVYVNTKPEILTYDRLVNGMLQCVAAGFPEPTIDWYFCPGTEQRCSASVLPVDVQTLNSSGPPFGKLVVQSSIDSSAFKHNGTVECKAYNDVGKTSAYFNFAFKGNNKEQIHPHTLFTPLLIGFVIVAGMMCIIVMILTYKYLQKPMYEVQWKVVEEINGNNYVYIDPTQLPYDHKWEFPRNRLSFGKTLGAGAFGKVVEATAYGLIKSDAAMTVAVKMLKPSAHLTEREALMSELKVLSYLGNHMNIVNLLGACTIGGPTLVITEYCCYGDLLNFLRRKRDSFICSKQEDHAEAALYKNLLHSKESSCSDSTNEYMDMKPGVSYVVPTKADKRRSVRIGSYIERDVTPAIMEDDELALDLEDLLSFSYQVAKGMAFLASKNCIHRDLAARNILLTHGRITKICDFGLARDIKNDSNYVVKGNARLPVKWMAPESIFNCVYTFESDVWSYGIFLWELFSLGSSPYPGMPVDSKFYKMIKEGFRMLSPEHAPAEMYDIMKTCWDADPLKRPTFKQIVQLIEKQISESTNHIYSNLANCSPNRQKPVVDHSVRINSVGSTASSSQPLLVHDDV
MAPK1 (ERK2), sequence (P28482 whole entry, species assumed): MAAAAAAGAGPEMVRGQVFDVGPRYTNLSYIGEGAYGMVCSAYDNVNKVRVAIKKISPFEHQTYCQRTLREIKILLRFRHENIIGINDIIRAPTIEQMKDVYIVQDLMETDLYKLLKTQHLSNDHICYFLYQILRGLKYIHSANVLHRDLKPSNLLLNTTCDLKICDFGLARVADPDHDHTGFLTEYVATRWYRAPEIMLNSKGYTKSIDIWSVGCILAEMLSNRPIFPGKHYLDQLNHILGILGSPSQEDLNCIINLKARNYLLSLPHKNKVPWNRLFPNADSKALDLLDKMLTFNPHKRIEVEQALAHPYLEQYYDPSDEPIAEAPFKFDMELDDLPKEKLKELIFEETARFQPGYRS
BTK, sequence (Q06187 whole entry, species assumed): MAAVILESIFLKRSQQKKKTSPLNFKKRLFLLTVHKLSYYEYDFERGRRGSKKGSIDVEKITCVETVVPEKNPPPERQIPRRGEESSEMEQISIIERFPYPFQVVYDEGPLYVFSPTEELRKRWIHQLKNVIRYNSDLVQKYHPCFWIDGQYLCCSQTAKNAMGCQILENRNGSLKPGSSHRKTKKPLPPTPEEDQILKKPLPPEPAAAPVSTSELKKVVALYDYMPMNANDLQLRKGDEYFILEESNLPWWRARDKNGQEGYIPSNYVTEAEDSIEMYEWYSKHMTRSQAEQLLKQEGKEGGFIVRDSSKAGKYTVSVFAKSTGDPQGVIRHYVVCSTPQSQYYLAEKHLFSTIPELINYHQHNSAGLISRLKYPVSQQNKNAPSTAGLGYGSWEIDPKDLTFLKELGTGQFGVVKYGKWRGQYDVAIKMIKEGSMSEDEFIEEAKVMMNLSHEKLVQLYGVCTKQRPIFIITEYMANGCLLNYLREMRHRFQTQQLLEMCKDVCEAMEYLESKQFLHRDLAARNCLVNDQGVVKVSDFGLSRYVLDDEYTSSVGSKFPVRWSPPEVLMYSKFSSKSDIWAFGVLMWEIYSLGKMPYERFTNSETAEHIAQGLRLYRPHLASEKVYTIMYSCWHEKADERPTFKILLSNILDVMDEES
MARK2, sequence (Q7KZI7 whole entry, species assumed): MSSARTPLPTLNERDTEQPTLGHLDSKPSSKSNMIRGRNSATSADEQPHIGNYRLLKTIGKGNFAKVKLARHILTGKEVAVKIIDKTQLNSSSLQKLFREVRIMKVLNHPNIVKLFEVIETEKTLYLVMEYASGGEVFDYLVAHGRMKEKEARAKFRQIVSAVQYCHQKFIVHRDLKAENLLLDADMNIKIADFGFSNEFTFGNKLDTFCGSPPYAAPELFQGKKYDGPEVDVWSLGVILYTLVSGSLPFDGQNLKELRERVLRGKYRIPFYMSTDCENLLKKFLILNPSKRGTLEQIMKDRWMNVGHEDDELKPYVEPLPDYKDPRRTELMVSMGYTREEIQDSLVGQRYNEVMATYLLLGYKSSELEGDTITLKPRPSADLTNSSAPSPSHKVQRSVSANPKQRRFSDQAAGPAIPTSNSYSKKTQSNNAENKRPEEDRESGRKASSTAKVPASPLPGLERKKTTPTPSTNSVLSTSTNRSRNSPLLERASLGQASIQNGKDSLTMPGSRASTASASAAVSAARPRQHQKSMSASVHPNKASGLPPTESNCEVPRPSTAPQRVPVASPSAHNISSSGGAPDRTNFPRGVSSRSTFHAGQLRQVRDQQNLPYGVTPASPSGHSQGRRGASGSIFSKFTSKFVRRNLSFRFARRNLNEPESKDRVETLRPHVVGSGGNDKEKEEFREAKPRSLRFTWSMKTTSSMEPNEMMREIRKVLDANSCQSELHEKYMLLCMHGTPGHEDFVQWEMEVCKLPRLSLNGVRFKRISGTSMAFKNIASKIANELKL
MAPK3 (ERK1), sequence (P27361 whole entry, species assumed): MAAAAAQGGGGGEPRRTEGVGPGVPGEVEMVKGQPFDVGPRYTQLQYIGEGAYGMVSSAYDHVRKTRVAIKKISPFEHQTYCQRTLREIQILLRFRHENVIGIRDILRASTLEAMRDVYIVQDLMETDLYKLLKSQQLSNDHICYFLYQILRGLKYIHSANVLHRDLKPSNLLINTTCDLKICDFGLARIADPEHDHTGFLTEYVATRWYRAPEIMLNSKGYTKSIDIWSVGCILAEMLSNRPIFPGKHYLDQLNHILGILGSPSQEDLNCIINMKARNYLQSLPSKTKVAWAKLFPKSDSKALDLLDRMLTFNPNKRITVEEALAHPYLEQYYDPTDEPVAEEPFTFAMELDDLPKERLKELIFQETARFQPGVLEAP

Consider `Nc1ncnc2c1ncn2[C@@H]1O[C@H](COC(=O)N2CCN(C(=O)N3CCOCC3)CC2)[C@@H](O)[C@H]1O` [Compound C89], for which the inhibition at 10 µM was -2% on MAP2K1 (MEK1); -4% against FRAP1 (mTOR); 3% on MAPK3 (ERK1); -3% against MARK2; -7% at NEK1; 8% against CSNK2A1 (CK2 alpha 1). The inhibition at 10 µM against BTK was 4%; against KIT, -16%; against MAPK14 (p38 alpha), -2%; at MAPK1 (ERK2), 9%.
`Nc1ncnc2c1ncn2[C@@H]1O[C@H](COC(=O)N2CCC(Cc3ccc(F)cc3)C2)[C@@H](O)[C@H]1O` (stereo partly drawn) [Compound C66]: the inhibition at 10 µM against MAP2K1 (MEK1) was -1%; against FRAP1 (mTOR), -4%; at MAPK3 (ERK1) it was -2%; against MARK2, -4%; against NEK1, -5%; at CSNK2A1 (CK2 alpha 1), -5%. The inhibition at 10 µM was 11% against BTK, -7% on KIT, 18% at MAPK14 (p38 alpha) and 9% at MAPK1 (ERK2).
In the case of `Nc1ncnc2c1ncn2[C@@H]1O[C@H](COC(=O)N2CCN(CCc3ccccc3)CC2)[C@@H](O)[C@H]1O` [Compound C26], the inhibition at 10 µM was 4% against MAP2K1 (MEK1); -6% on FRAP1 (mTOR); 8% against MAPK3 (ERK1); 18% against MARK2; -7% against NEK1; 3% against CSNK2A1 (CK2 alpha 1). Further, the inhibition at 10 µM was 0% against BTK, 6% against KIT, -6% against MAPK14 (p38 alpha) and 11% against MAPK1 (ERK2).
On to `CN1CCN(CCNC(=O)OC[C@H]2O[C@@H](n3cnc4c(N)ncnc43)[C@H](O)[C@@H]2O)CC1` [Compound C46], for which the inhibition at 10 µM at MAP2K1 (MEK1) is -1%; at FRAP1 (mTOR) it was 5%; on MAPK3 (ERK1) it was 2%; on MARK2, 4%; on NEK1, 7%; against CSNK2A1 (CK2 alpha 1), 5%. Besides, the inhibition at 10 µM was 0% at BTK, 6% against KIT, 5% on MAPK14 (p38 alpha) and 9% at MAPK1 (ERK2).
With `CC(C)N1CCC(NC(=O)OC[C@H]2O[C@@H](n3cnc4c(N)ncnc43)[C@H](O)[C@@H]2O)CC1` [Compound C19], the inhibition at 10 µM was -2% against MAP2K1 (MEK1); 5% against FRAP1 (mTOR); 4% against MAPK3 (ERK1); 7% against MARK2; -2% against NEK1; 5% at CSNK2A1 (CK2 alpha 1). In addition, the inhibition at 10 µM was -1% against BTK, -1% against KIT, -1% against MAPK14 (p38 alpha) and 7% on MAPK1 (ERK2).
Take `Nc1ncnc2c1ncn2[C@@H]1O[C@H](COC(=O)NCCCc2nc3ccccc3[nH]2)[C@@H](O)[C@H]1O` [Compound C1]: the inhibition at 10 µM on MAP2K1 (MEK1) is 11%; at FRAP1 (mTOR) it was -2%; at MAPK3 (ERK1), 5%; against MARK2, 3%; on NEK1, -4%; on CSNK2A1 (CK2 alpha 1) it was -5%. Moreover, the inhibition at 10 µM at BTK was 9%; against KIT, 10%; against MAPK14 (p38 alpha), -3%; against MAPK1 (ERK2) it was 7%.
In the case of `CN(C)CCNC(=O)OC[C@H]1O[C@@H](n2cnc3c(N)ncnc32)[C@H](O)[C@@H]1O` [Compound C85], the inhibition at 10 µM against MAP2K1 (MEK1) was -3%; against FRAP1 (mTOR), 2%; at MAPK3 (ERK1), 2%; at MARK2 it was 4%; against NEK1, 1%; against CSNK2A1 (CK2 alpha 1), 7%. Also, the inhibition at 10 µM was determined as 0% against BTK, 10% against KIT, 0% against MAPK14 (p38 alpha) and 8% against MAPK1 (ERK2).
Turning to `CS(=O)(=O)N1CC2(CCN(C(=O)OC[C@H]3O[C@@H](n4cnc5c(N)ncnc54)[C@H](O)[C@@H]3O)CC2)c2ccccc21` [Compound C98], the inhibition at 10 µM on MAP2K1 (MEK1) came to 4%; on FRAP1 (mTOR) it was 2%; against MAPK3 (ERK1), 8%; at MARK2, 2%; against NEK1 it was 0%; against CSNK2A1 (CK2 alpha 1), 2%. Moreover, the inhibition at 10 µM on BTK is 16%; against KIT it was 20%; against MAPK14 (p38 alpha) it was 20%; at MAPK1 (ERK2) it was 16%.
On to `Nc1ncnc2c1ncn2[C@@H]1O[C@H](COC(=O)NC[C@H](O)CO)[C@@H](O)[C@H]1O` [Compound C8], for which the inhibition at 10 µM at MAP2K1 (MEK1) was 10%; against FRAP1 (mTOR), 5%; against MAPK3 (ERK1), 12%; against MARK2 it was 10%; at NEK1 it was -5%; against CSNK2A1 (CK2 alpha 1), 5%. The inhibition at 10 µM against BTK is 4%; against KIT, 28%; on MAPK14 (p38 alpha) it was -3%; against MAPK1 (ERK2), 16%.
Turning to `Nc1ncnc2c1ncn2[C@@H]1O[C@H](COC(=O)N2CCN(Cc3ccccc3)CC2CO)[C@@H](O)[C@H]1O` (stereo partly drawn) [Compound C13], the inhibition at 10 µM against MAP2K1 (MEK1) was 1%; against FRAP1 (mTOR) it was -1%; against MAPK3 (ERK1), 5%; on MARK2, 11%; at NEK1, 4%; on CSNK2A1 (CK2 alpha 1) it was 3%. The inhibition at 10 µM against BTK is 9%; against KIT, 18%; against MAPK14 (p38 alpha) it was 0%; on MAPK1 (ERK2), 10%.
For `Nc1ncnc2c1ncn2[C@@H]1O[C@H](COC(=O)N2CCC[C@H]2CO)[C@@H](O)[C@H]1O` [Compound C9], the inhibition at 10 µM at MAP2K1 (MEK1) is -3%; at FRAP1 (mTOR), -3%; at MAPK3 (ERK1), 5%; against MARK2, 6%; on NEK1, -3%; on CSNK2A1 (CK2 alpha 1) it was 5%. The inhibition at 10 µM is 9% at BTK, -3% against KIT, -4% at MAPK14 (p38 alpha) and 11% against MAPK1 (ERK2).
With `Nc1ncnc2c1ncn2[C@@H]1O[C@H](COC(=O)NCCN2CCCC2=O)[C@@H](O)[C@H]1O` [Compound C22], the inhibition at 10 µM against MAP2K1 (MEK1) was -3%; on FRAP1 (mTOR), 0%; against MAPK3 (ERK1), 1%; at MARK2, 8%; on NEK1, -2%; on CSNK2A1 (CK2 alpha 1) it was 2%. The inhibition at 10 µM at BTK was -1%; on KIT, 3%; against MAPK14 (p38 alpha), -1%; against MAPK1 (ERK2), 9%.

For the origin of these results see patent EP3212201B1, “NUCLEOSIDE KINASE INHIBITORS” (BCI Pharma, priority 2014, dated 2016).
